Experimental data from paper PMC8000592, “Discovery and Optimization of Selective Inhibitors of Meprin α (Part I)” (Pharmaceuticals, 2021).
Where two headings read alike, the source gives them in different places. Each block holds one compound with its values, some of them ahead of it. Peptide text beside a SMILES is read from it. * marks the point of attachment. Dnp = O=[N+]([O-])c1ccc(*)c([N+](=O)[O-])c1; Mca = COc1ccc2c(CC(=O)*)cc(=O)oc2c1

Assays:
meprin β [1] = molecular target: T1, meprin β (Homo sapiens, UniProt Q16820); test: Meprin β assay, fluorogenic substrate (Mca)-EDEDED-(K-ε-Dnp), 384 and 1536 well plate formats; format: biochemical; conditions: read-out: IC50
T1 sequence (Q16820 62-594 limits assumed): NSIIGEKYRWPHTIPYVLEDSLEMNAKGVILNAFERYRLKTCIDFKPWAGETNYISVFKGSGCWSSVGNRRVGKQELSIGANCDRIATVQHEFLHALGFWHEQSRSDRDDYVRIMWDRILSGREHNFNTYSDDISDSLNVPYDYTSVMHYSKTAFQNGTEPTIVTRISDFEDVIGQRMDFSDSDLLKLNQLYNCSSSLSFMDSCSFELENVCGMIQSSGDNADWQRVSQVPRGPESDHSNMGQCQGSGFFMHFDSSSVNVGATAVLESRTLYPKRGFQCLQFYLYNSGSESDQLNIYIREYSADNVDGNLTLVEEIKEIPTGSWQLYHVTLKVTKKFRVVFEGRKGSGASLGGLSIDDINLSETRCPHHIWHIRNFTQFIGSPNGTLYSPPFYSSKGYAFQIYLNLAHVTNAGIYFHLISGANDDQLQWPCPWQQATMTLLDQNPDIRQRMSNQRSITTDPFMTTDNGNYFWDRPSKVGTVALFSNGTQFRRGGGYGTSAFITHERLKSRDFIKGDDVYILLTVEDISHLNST
Description: (§1) The meprin α and meprin β assays, which utilize the substrates (Mca)-YVADAPK-(K-ε-Dnp) and (Mca)-EDEDED-(K-ε-Dnp), respectively, have been described previously. To enable an ultra-high-throughput screening (uHTS) campaign, we proceeded to miniaturize both assays to 1536 well plate format (wpf). First, we recapitulated the assays in 1536 well plate using reagents at the same concentrations as in 384 well plate format assays by scaling the volume down by the factor of 2.5.
(§2) Both assays followed the same general protocol. A 5 µL measure of 2 × enzyme solution (2.6 and 0.1 nM for meprin α and meprin β, respectively) in assay buffer (50 mM Hepes, 0.01% Brij-35, pH 7.5) was added to solid bottom black 384 low volume plates (Nunc, cat# 264705). Next, 75 nL of test compounds or pharmacological control (actinonin or NFF449) were added to corresponding wells using a 384-pin tool device (V&P Scientific, San Diego, CA, USA). After 30 min incubation at RT, the reactions were started by addition of 5 µL of 2 × solutions of substrates (20 µM, mepin α substrate Mca-YVADAPK-K(Dnp) or meprin β substrate Mca-EDEDED-K(Dnp)). Reactions were incubated at RT for 1 h, after which the fluorescence was measured using the Synergy H4 multimode microplate reader (Biotek Instruments) (λexcitation = 324 nm, λemission = 390 nm).
(§3) Both assays followed the same general protocol. A 2 µL portion of 2 × enzyme solution (1.3 and 0.0125 nM for meprin α and meprin β, respectively) in assay buffer (50 mM Hepes, 0.01% Brij-35, pH 7.5) was added to solid bottom black 1536 low volume plates (Corning cat# 7261). Next, 30 nL of test compounds or pharmacological control (actinonin or NFF449) was added to corresponding wells using a 1536 pin tool device (V&P Scientific, San Diego). After 30 min incubation at RT, the reactions were started by addition of 2 µL of 2x solutions of substrates (20 µM, meprin α substrate Mca-YVADAPK-K(Dnp) or meprin β substrate Mca-EDEDED-K(Dnp)). Reactions were incubated at RT for 1 h, after which the fluorescence was measured using the Viewlux multimode microplate reader (Perkin Elmer) (λexcitation = 324 nm, λemission = 390 nm).
(§4) The miniaturized 1536-well plate format meprin α and meprin β assays were used to screen a collection of approximately 650,000 compounds (The Scripps Research library, La Jolla, CA, USA) on the automated Kalypsys/GNF platform at The Scripps Research Molecular Screening Center (SRMSC, Jupiter, FL, USA: http://hts.florida.scripps.edu/). Both uHTS campaigns were run separately but in a similar manner. Briefly, the first step was the primary screen of all test compounds as singlicates against the meprin α and meprin β target at a final concentration of 7.0 μM. Next, compounds selected as primary hits were cherry-picked and retested in triplicate against the primary screen target and its antitarget (meprin α for the meprin β screening effort, and vice versa) at a same final concentration of 7.0 μM. The additional counter screen assays against related metzincins (MMP-8, MMP-14, and ADAM10) were performed in triplicate at a final concentration of 7.0 μM. The final step was the titration of selected hits as 10-point, 1:3 serial dilutions in both the target and antitarget assay, starting at a final nominal concentration of 17 μM. […] Wells treated with DMSO only were used as negative controls and 0% inhibition reference. […] All data generated during this effort were uploaded to the SRMSC’s institutional screening database (Assay Explorer, Symyx). Sample to background (S/B) ratios, as well as Z and Z’ values, were calculated on a per plate basis as described 14. Curve fitting and resulting IC50 determinations were performed as previously reported.

meprin α [2] = molecular target: T2, meprin α (Homo sapiens, UniProt Q16819); test: Meprin α assay, fluorogenic substrate (Mca)-YVADAPK-(K-ε-Dnp), 384 and 1536 well plate formats; format: biochemical
T2 sequence (Q16819 66-593 limits assumed): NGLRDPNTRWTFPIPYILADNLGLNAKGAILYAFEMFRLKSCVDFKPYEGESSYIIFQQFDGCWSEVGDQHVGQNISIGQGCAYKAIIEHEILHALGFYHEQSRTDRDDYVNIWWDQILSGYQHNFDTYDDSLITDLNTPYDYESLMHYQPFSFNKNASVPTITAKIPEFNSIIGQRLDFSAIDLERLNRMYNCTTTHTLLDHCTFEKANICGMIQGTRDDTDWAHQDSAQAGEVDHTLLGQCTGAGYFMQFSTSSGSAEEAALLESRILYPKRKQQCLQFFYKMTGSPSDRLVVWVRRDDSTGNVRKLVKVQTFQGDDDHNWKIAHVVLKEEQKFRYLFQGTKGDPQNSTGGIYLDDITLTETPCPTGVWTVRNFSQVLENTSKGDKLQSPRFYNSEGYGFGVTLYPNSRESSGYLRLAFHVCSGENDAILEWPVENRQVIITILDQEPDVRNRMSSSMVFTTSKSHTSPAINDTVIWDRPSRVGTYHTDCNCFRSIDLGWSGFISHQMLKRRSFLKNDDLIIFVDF
Description: as §1, §2, §3, §4

meprin α [3] = conditions: cited from earlier work
meprin β [4] = conditions: cited from earlier work
MMP and ADAM = conditions: cited from earlier work; for effect on MMP and ADAM activity: 200 µM inhibitor
meprin α [5] = molecular target: T2, meprin α; test: Kinetic parameters of meprin α mediated proteolysis of its substrate; format: biochemical; conditions: proteolysis by meprin α, 25 °C
Experimental: Next, we performed substrate optimization to achieve balanced assay conditions defined as [S]/KM = 1 [19]. In order to do that, we first determined kinetic parameters of proteolysis of meprin α and meprin β substrates by the respective enzymes (Figure 4A,B). […] To optimize substrate concentrations, both assays were run for 90 min at three different substrate concentrations (10, 5, and 2.5 µM) which included the concentration at which the assays were recapitulated in 1536 wpf (10 µM for both meprin α and meprin β) and the concentration approximating [S]/KM = 1 condition (2.5 µM). Enzyme concentrations were fixed at 1.3 nM for meprin α and 0.0125 nM for meprin β. […]
Substrate stock solutions were prepared at various concentrations in HTS assay buffer (50 mM Hepes, 0.01% Brij-35, pH 7.5). […] Fluorescence was measured on a multimode microplate reader Synergy H1 (Biotek Instruments, Winooski, VT, USA) using λexcitation = 324 nm and λemission = 393 nm. Rates of hydrolysis were obtained from plots of fluorescence versus time, using data points from only the linear portion of the hydrolysis curve. The slope from these plots was divided by the fluorescence change corresponding to complete hydrolysis and then multiplied by the substrate concentration to obtain rates of hydrolysis in units of μM/s. […]

IC50 (meprin β [1]; Meprin β 384 wpf): 22 µM
IC50 (meprin β [1]; Meprin β 1536 wpf): 9.75 µM
increased apparent potency (meprin α [2]; 2.5 µM substrate condition): 2 fold
IC50 (meprin α [2]; 1536 wpf, 1.3 nM enzyme, substrate 2.5uM, time 30 min, read-out: Actinonin IC50): 3 nM
IC50 (meprin α [2]; 1536 wpf, 1.3 nM enzyme, substrate 2.5uM, time 60 min, read-out: Actinonin IC50): 3.4 nM
IC50 (meprin α [2]; 1536 wpf, 1.3 nM enzyme, substrate 5uM, time 30 min, read-out: Actinonin IC50): 3.2 nM
IC50 (meprin α [2]; 1536 wpf, 1.3 nM enzyme, substrate 10uM, time 30 min, read-out: Actinonin IC50): 5.4 nM
IC50 (meprin α [2]; 1536 wpf, 1.3 nM enzyme, substrate 10uM, time 60 min, read-out: Actinonin IC50): 6.4 nM
IC50 (meprin α [2]; 1536 wpf, 1.3 nM enzyme, substrate 10uM, time 90 min, read-out: Actinonin IC50): 6.9 nM
IC50 (meprin α [2]; 1536 wpf, enzyme 0.32nM, time 30 min, read-out: Actinonin IC50): 5.18 nM
IC50 (meprin α [2]; 1536 wpf, enzyme 0.32nM, time 60 min, read-out: Actinonin IC50): 5.54 nM
IC50 (meprin α [2]; 1536 wpf, enzyme 0.32nM, time 90 min, read-out: Actinonin IC50): 5.83 nM
IC50 (meprin α [2]; 1536 wpf, enzyme 0.65nM, time 30 min, read-out: Actinonin IC50): 4.11 nM
IC50 (meprin α [2]; 1536 wpf, enzyme 0.65nM, time 60 min, read-out: Actinonin IC50): 4.99 nM
IC50 (meprin α [2]; 1536 wpf, enzyme 0.65nM, time 90 min, read-out: Actinonin IC50): 5.2 nM
IC50 (meprin α [2]; 1536 wpf, enzyme 1.3nM, time 30 min, read-out: Actinonin IC50): 4.84 nM
IC50 (meprin α [2]; 1536 wpf, enzyme 1.3nM, time 60 min, read-out: Actinonin IC50): 5.94 nM
IC50 (meprin α [2]; 1536 wpf, enzyme 1.3nM, time 90 min, read-out: Actinonin IC50): 6.33 nM
IC50 (meprin α [2]; Meprin α 384 wpf, read-out: IC50): 11 nM
IC50 (meprin α [2]; Meprin α 1536 wpf, read-out: IC50): 5.7 nM
IC50 (meprin α [2]; control compound in primary HTS campaign, n = 11 plates, read-out: IC50): 2.9 ± 0.12 nM
SMILES: CCCCC[C@H](CC(=O)NO)C(=O)N[C@H](C(=O)N1CCC[C@H]1CO)C(C)C [Actinonin, actinonin]

SMILES: O=C(CN(Cc1ccc(F)c(O)c1F)Cc1ccc(F)c(O)c1F)NO [Compound 8h]
IC50 (meprin α [3]; read-out: IC50 meprin α): 626 nM
selective against meprin α (meprin β [4]): 27 fold
IC50 (meprin β [4]; read-out: IC50 meprin β): 23 nM
effect on MMP and ADAM activity (MMP and ADAM): only limited effect

SMILES: O=C(CN(Cc1ccc(Cl)c(O)c1F)Cc1ccc(Cl)c(O)c1F)NO [Compound 8i]
IC50 (meprin α [3]; read-out: IC50 meprin α): 368 nM
selective against meprin α (meprin β [4]): 15 fold
IC50 (meprin β [4]; read-out: IC50 meprin β): 24 nM
effect on MMP and ADAM activity (MMP and ADAM): only limited effect

SMILES: O=C(CCN(CCc1ccc2c(c1)OCCO2)CCc1ccc2c(c1)OCCO2)NO [Compound 10d]
selectivity against meprin β (Selectivity Fold) (meprin α [3]): 18 fold
IC50 (meprin α [3]; read-out: Meprin α IC50): 160 nM
IC50 (meprin β [4]; read-out: Meprin β IC50): 2950 nM

SMILES: O=C(CCN(CCc1ccc2c(c1)OCO2)CCc1ccc2c(c1)OCO2)NO [Compound 10e]
selectivity against meprin β (Selectivity Fold) (meprin α [3]): 19 fold
IC50 (meprin α [3]; read-out: Meprin α IC50): 400 nM
IC50 (meprin β [4]; read-out: Meprin β IC50): 7590 nM

SMILES: O=C(CN(Cc1cccc(C(=O)O)c1)S(=O)(=O)c1cccc(C(=O)O)c1)NO [Compound 11g]
IC50 (meprin α [3]; read-out: IC50 meprin α): 2740 nM
selectivity against meprin α (meprin β [4]): 46 fold
IC50 (meprin β [4]; read-out: IC50 meprin β): 60 nM
selectivity against adamalysins and matrixins (MMP and ADAM): good selectivity

SMILES: Cc1nc(/N=N/c2cc(S(=O)(=O)O)c3cc([N+](=O)[O-])cc(S(=O)(=O)O)c3c2)c(COP(=O)(O)O)c(C=O)c1O [PPNDS]
Ki (meprin β [4]): 8 nM

SMILES: COc1ccc2c(CC(=O)N[C@@H](Cc3ccc(O)cc3)C(=O)N[C@H](C(=O)N[C@@H](C)C(=O)N[C@@H](CC(=O)O)C(=O)N[C@@H](C)C(=O)N3CCC[C@H]3C(=O)N[C@@H](CCCCN)C(=O)N[C@@H](CCCCNc3ccc([N+](=O)[O-])cc3[N+](=O)[O-])C(N)=O)C(C)C)cc(=O)oc2c1 [meprin α substrate, (Mca)-YVADAPK-(K-ε-Dnp)] (Mca-YVADAPKK(Dnp)-NH2)
Km (meprin α [5]): 2400 ± 300 nM
